Results reported in US4921871A, “Enolamides, pharmaceutical compositions and methods of use thereof for treating inflammation” (Warner-Lambert Company, priority 1987, dated 1990).

Target: T1, human leukocyte 5-lipoxygenase (Homo sapiens, UniProt P09917)
T1 construct: endogenous in cells; host or cells: leukocytes from fresh human blood
T1 sequence (P09917 1-674): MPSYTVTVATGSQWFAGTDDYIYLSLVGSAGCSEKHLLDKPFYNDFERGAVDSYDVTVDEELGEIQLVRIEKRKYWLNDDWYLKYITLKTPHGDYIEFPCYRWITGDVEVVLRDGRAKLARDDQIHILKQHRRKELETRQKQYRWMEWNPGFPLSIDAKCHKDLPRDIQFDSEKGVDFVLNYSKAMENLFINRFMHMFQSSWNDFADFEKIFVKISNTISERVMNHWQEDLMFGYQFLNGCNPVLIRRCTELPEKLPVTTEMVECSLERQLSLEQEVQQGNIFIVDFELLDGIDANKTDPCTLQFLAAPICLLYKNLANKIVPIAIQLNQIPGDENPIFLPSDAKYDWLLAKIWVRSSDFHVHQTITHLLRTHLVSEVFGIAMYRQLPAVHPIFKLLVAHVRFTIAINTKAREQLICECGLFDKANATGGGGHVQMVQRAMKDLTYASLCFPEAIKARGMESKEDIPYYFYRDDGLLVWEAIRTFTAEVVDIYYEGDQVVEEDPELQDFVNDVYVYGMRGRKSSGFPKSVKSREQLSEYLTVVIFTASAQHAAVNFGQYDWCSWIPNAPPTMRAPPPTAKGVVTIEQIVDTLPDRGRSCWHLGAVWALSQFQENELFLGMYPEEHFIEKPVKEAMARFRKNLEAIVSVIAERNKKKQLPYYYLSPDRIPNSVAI
Assay: 5-Lipoxygenase assay in human leukocytes, formation of 5-HETE (5LOA; 5LOA1 or 5LOA2 not specified)
Type: cell-based
From the text: To Evaluate the Effect of Each Compounds as a 5-Lipoxygenase Inhibitor in Comparison to Standard Reference Agents in Human Leukocytes (5LOAl)
The purpose of this assay is to evaluate the activity of each compound as an inhibitor of human leukocyte 5-lipoxygenase.
Arachidonic acid and calcium ionophore A23l87 are obtained from Sigma (St. Louis, Mo.). Silica gel plates, GF are obtained from Analtech (Newark, Del.). Arachidonic acid, (1-^14 C) and 5-HETE (^3 H), 5 (S)-hydroxy-6-trans, 8,11,14-cis eicosatetraenoic acid, are obtained from New England Nuclear (Boston, Mass.). Six percent Dextran-70 in 0.9% NaCl is obtained from Cutter Labs (Berkeley, Calif.).
Fresh blood from normal adult men who had not received any drugs for at least the previous five days is obtained by the Community Research Clinic (WL/PD) using venipuncture and collected into heparinized vacuotainer tubes. To every 100 ml of pooled blood is added 25 ml of dextran solution (6% dextran -70 in 0.9% sodium chloride containing 3% dextrose) and this is mixed gently in a plastic cylinder. The mixture is left to stand at room temperature for at least 90 minutes. The upper layer which is rich in leukocytes and platelets is then carefully decanted into 50 ml plastic tubes and centrifuged at about 100×g for eight minutes in an IEC centrifuge and rotor number 269 (about 600 rpm). The supernatant fluid is discarded and the pellet is resuspended in 10 ml of 0.87% ammonium chloride for exactly two minutes. This procedure is to lyse completely contaminating red blood cells. Leukocytes are then separated by centrifugation for ten minutes. The pellet is washed three times by suspension in 20 ml PBS (sodium chloride, 7.1 g; Na2 HPO4, 1.15 g; KH2 PO4, 0.2 g, and KCl, 0.2 g/L) and centrifuged as before. The final pellet is suspended in PBS containing 0.87 mM CaCl2. Viability of the cells is then checked using trypan blue exclusion method and is found to be over 90%.
Leukocyte cells in suspension (0.98 ml) are incubated with or without test compounds for five minutes at 37° C. in a shaking water bath. At this time a 17 μl mixture is prepared per 1 ml of cell suspension: 100 mM arachidonic acid, 1 μl, 0.05 μCi ^14 C-arachidonic acid in 5 .rho.l; 1 mM calcium ionophore A23187, 10 μl (1). This mixture is added and the incubation continued for five minutes. The reaction is stopped by adding four volumes of absolute ethanol and the mixture is kept in ice for 30 minutes. The floculated precipitate is separated by centrifugation at about 37,000×g for 20 minutes (Beckman Instruments rotor number 40). The alcohol extract is taken to dryness under a stream of nitrogen and the residue is dissolved in 100-200 μl absolute ethanol. At the time any turbidity is removed by centrifugation. An aliquot (25-50 μl) is applied onto 20×20 cm silica gel TLC plate and developed using the following solvent system: diethyl ether, petroleum ether (2040° C.), acetic acid (50:50: 1 v/v). Zones of 1 cm apart are scraped from the TLC plate and transferred to mini-vials. Methanol (0.5 ml) is added to dissolve the radioactivity adsorbed to the silica gel and scintillation fluid (H.P., Beckman), 5 ml is then added and vials are counted in a liquid scintillation counter. A sample of ^3 H-5-HETE is applied and used for the identification of the formed 5-HETE.
Total radioactivity in the test as well as the control samples are normalized and the amount of 5-HETE present is calculated accordingly.
IC50 values are defined as the concentrations of test agents which caused a 50% inhibition of the formation of 5-HETE as compared to control and are determined by inspection of the concentration-response curves.
The formation of 5-HETE in human leukocytes is considered a measure of 5-lipoxygenase activity. The protocol is described in the following.
Fresh heparinized or EDTA treated human blood is mixed with 6% dextran-3% dextrose in isotonic saline in the ratio 0.25 ml dextran solution per 1.0 ml blood. […]

Compound | 5LOA, % Inhibition (2.00 E -5 M) | 5LOA, % Inhibition (5.00 E -6 M)
O=C(Nc1ccc(CCc2ccc(Cl)c(Cl)c2)cc1)C(=O)c1sc2ccccc2c1O [Example 136, Benzo[b]thiophene-2-acetamide, N-[4-[2-(3,4-dichlorophenyl)ethyl]phenyl]-3-hydroxy-α-oxo] | +2.2% | +1.4%
COc1c(C(=O)Nc2ccc(CCc3ccc(Cl)c(Cl)c3)cc2)sc2ccccc12 [Example 147, Benzo[b]thiophene-2-carboxamide, N-[4-[2-(3,4-dichlorophenyl)ethyl]phenyl]-3-methoxy] | 13.8% | 5.5%
